This note sets out measurements from the Kinase Knowledgebase extract (Sharma et al. 2016).

A word on the IC50: it is the concentration needed to halve the response being measured. Low readings indicate higher potency, high ones lower potency.

Each structure is given as a SMILES string.

In this experiment the target is EGFR (UniProt P00533).
Chain of EGFR (P00533 whole entry, looked up): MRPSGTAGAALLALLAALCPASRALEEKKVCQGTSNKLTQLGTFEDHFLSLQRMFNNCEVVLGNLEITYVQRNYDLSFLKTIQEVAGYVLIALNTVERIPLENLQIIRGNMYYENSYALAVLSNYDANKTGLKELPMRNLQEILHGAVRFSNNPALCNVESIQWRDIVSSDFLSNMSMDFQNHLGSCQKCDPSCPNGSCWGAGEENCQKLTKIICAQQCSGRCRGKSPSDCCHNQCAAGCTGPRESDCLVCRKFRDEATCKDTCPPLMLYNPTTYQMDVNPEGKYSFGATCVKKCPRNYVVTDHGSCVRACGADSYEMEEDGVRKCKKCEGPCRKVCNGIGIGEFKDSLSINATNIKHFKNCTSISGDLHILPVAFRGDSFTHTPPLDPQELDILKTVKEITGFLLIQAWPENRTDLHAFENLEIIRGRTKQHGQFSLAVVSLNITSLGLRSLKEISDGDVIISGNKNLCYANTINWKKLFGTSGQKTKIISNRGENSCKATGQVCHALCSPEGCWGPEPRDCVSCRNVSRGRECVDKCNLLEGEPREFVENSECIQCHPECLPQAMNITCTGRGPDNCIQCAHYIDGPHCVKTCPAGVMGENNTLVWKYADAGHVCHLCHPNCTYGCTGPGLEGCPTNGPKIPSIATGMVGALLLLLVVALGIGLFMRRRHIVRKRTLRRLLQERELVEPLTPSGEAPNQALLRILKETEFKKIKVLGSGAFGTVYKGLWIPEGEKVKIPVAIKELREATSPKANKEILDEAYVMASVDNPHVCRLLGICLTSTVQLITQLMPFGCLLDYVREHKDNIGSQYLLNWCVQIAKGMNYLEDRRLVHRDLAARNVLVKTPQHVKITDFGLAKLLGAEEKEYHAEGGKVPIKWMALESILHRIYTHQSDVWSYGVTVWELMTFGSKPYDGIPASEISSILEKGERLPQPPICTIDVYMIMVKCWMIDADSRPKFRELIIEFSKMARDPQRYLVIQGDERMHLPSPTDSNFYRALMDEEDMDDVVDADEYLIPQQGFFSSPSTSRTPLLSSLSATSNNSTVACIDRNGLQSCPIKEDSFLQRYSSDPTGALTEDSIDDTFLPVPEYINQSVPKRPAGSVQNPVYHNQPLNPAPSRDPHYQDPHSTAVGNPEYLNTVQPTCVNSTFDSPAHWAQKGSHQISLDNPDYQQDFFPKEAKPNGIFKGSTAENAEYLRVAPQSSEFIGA
Compound `COc1cc(Nc2nccc(-n3c(=O)[nH]c4ccccc43)n2)cc(OC)c1OC` registered a 50% inhibitory concentration (IC50) of at least 10 µM.
Then `COc1cc(Nc2nccc(Nc3ccc4c(cnn4Cc4ccccc4)c3)n2)cc(OC)c1OC`, with under 1.5 µM; and `COc1cc(Nc2ccnc(Nc3ccc4c(cnn4Cc4ccccc4)c3)n2)cc(OC)c1OC`, with 1.5 to 5 µM; and `COc1cc(Nc2nccc(Nc3cc(C(C)(C)C)n[nH]3)n2)cc(OC)c1OC`, with 5 to 10 µM.
Then `COc1cc(Nc2nccc(-n3c(N)nc4ccccc43)n2)cc(OC)c1OC`, with at least 10 µM; and `COc1cc(Nc2nccc(-n3c(=O)oc4ccccc43)n2)cc(OC)c1OC`, with at least 10 µM.
As for `COc1ccc(-c2ccn(-c3ccnc(Nc4cc(OC)c(OC)c(OC)c4)n3)n2)cc1`, the half-inhibitory concentration (IC50) lay in the range of 5 to 10 µM.
With `COc1cc(Nc2ccnc(Nc3ccc(OCc4ccccc4)cc3)n2)cc(OC)c1OC`, the IC50 is at least 10 µM.
Then `COc1cc(Nc2nccc(-n3ccc4ccccc43)n2)cc(OC)c1OC`, with at least 10 µM; and `COc1cc(Nc2nccc(-n3ccc(-c4ccc(Cl)cc4)n3)n2)cc(OC)c1OC`, with at least 10 µM.
In the case of `Cc1cccc(Nc2ccnc(Nc3cccc(Br)c3)n2)c1`, the IC50 was at least 10 µM.
Regarding `Cc1cccc(Nc2nccc(Nc3cccc(Br)c3)n2)c1`, the IC50 is at least 10 µM.
To `Clc1cccc(Nc2ccnc(Nc3cccc(Cl)c3)n2)c1` belongs at least 10 µM.
Consider `COc1cc(Nc2ccnc(-n3ccc4ccccc43)n2)cc(OC)c1OC`, for which the half-inhibitory concentration (IC50) is at least 10 µM.
To `COc1ccc(Nc2ccnc(Nc3ccc(OC)c(OC)c3)n2)cc1OC` belongs at least 10 µM; to `COc1cc(Nc2ccnc(Nc3ccc(Oc4ccccc4)cc3)n2)cc(OC)c1OC`, 5 to 10 µM.
